Assay results published in patent US20250262201A1, “COMPOUNDS AND METHODS USEFUL FOR STABILIZING PHENYLALANINE HYDROXYLASE MUTATIONS” (Agios Pharmaceuticals, Inc., priority 2022, published 2025).

Target: T1, human PAH with the R408W mutation (Homo sapiens, UniProt P00439, R408W)
T1 construct: expressed in transfected cells
T1 sequence (P00439 1-452 R408W): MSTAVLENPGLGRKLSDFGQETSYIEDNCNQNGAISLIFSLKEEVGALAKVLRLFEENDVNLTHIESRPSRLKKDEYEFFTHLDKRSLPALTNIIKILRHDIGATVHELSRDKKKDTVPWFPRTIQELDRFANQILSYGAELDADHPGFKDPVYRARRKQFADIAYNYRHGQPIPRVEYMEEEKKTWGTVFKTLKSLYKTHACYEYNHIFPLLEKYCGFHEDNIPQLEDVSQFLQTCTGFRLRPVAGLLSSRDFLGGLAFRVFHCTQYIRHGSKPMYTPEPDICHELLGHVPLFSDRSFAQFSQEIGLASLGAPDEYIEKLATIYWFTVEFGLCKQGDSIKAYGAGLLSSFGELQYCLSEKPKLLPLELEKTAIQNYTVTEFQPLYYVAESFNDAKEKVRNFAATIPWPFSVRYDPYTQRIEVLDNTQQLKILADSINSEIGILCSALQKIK
Experiment: Cell Based Phenylalanine Flux Assay
Settings: A375 cells expressing human R408W PAH; 24 hrs compound incubation; 13C-Tyrosine by LC-MS; average where tested multiple times; read-out: AC50

SMILES | AC50 [nM]
O=C(c1nnc(-c2cnn(C(F)F)c2)o1)N1CCc2[nH]cnc2[C@H]1c1ncc2ccccc2n1 [Example 185, (S)-(5-(1-(difluoromethyl)-1H-pyrazol-4-yl)-1,3,4-oxadiazol-2-yl)(4-(quinazolin-2-yl)-6,7-dihydro-1H-imidazo[4,5-c]pyridin-5(4H)-yl)methanone] | < 500
O=C(c1nnc(-c2cnn(C(F)F)c2)o1)N1CCc2[nH]cnc2[C@@H]1c1ncc2ccccc2n1 [Example 186, (R)-(5-(1-(difluoromethyl)-1H-pyrazol-4-yl)-1,3,4-oxadiazol-2-yl)(4-(quinazolin-2-yl)-6,7-dihydro-1H-imidazo[4,5-c]pyridin-5(4H)-yl)methanone] | > 5000
O=C(c1nnc(-c2cnn(C3CCC3)c2)o1)N1CCc2[nH]cnc2[C@H]1c1ncc2ccccc2n1 [Example 187, (S)-(5-(1-cyclobutyl-1H-pyrazol-4-yl)-1,3,4-oxadiazol-2-yl)(4-(quinazolin-2-yl)-6,7-dihydro-1H-imidazo[4,5-c]pyridin-5(4H)-yl)methanone] | < 500
O=C(c1nnc(-c2cnn(C3CCC3)c2)o1)N1CCc2[nH]cnc2[C@@H]1c1ncc2ccccc2n1 [Example 188, (R)-(5-(1-cyclobutyl-1H-pyrazol-4-yl)-1,3,4-oxadiazol-2-yl)(4-(quinazolin-2-yl)-6,7-dihydro-1H-imidazo[4,5-c]pyridin-5(4H)-yl)methanone] | 1000 to 5000
O=C(c1nnc(-c2ccn(C(F)F)n2)o1)N1CCc2[nH]cnc2[C@H]1c1ncc2ccccc2n1 [Example 189, (S)-(5-(1-(difluoromethyl)-1H-pyrazol-3-yl)-1,3,4-oxadiazol-2-yl)(4-(quinazolin-2-yl)-6,7-dihydro-1H-imidazo[4,5-c]pyridin-5(4H)-yl)methanone] | < 500
O=C(c1nnc(-c2ccn(C(F)F)n2)o1)N1CCc2[nH]cnc2[C@@H]1c1ncc2ccccc2n1 [Example 190, (R)-(5-(1-(difluoromethyl)-1H-pyrazol-3-yl)-1,3,4-oxadiazol-2-yl)(4-(quinazolin-2-yl)-6,7-dihydro-1H-imidazo[4,5-c]pyridin-5(4H)-yl)methanone] | 1000 to 5000
O=C(c1nnc(-c2cnccn2)o1)N1CCc2[nH]cnc2[C@@H]1c1ncc2ccccc2n1 [Example 191, (R)-(5-(pyrazin-2-yl)-1,3,4-oxadiazol-2-yl)(4-(quinazolin-2-yl)-6,7-dihydro-1H-imidazo[4,5-c]pyridin-5(4H)-yl)methanone] | > 5000
O=C(c1nnc(-c2cnccn2)o1)N1CCc2[nH]cnc2[C@H]1c1ncc2ccccc2n1 [Example 192, (S)-(5-(pyrazin-2-yl)-1,3,4-oxadiazol-2-yl)(4-(quinazolin-2-yl)-6,7-dihydro-1H-imidazo[4,5-c]pyridin-5(4H)-yl)methanone] | 500 to 1000
Cc1nc(-c2ccccn2)oc1C(=O)N1CCc2[nH]cnc2[C@H]1c1ncc2ccccc2n1 [Example 193, (S)-(4-methyl-2-(pyridin-2-yl)oxazol-5-yl)(4-(quinazolin-2-yl)-6,7-dihydro-1H-imidazo[4,5-c]pyridin-5(4H)-yl)methanone] | < 500
Cc1nc(-c2ccccn2)oc1C(=O)N1CCc2[nH]cnc2[C@@H]1c1ncc2ccccc2n1 [Example 194, (R)-(4-methyl-2-(pyridin-2-yl)oxazol-5-yl)(4-(quinazolin-2-yl)-6,7-dihydro-1H-imidazo[4,5-c]pyridin-5(4H)-yl)methanone] | 1000 to 5000
O=C(c1nnc(-c2ccc(OC(F)(F)F)cn2)o1)N1CCc2[nH]cnc2[C@H]1c1ncc2ccccc2n1 [Example 195, (S)-(4-(quinazolin-2-yl)-6,7-dihydro-1H-imidazo[4,5-c]pyridin-5(4H)-yl)(5-(5-(trifluoromethoxy)pyridin-2-yl)-1,3,4-oxadiazol-2-yl)methanone] | < 500
O=C(c1nnc(-c2ccc(OC(F)(F)F)cn2)o1)N1CCc2[nH]cnc2[C@@H]1c1ncc2ccccc2n1 [Example 196, (R)-(4-(quinazolin-2-yl)-6,7-dihydro-1H-imidazo[4,5-c]pyridin-5(4H)-yl)(5-(5-(trifluoromethoxy)pyridin-2-yl)-1,3,4-oxadiazol-2-yl)methanone] | > 5000
Cn1cnc(-c2nnc(C(=O)N3CCc4[nH]cnc4[C@H]3c3ncc4ccccc4n3)o2)c1 [Example 197, (S)-(5-(1-methyl-1H-imidazol-4-yl)-1,3,4-oxadiazol-2-yl)(4-(quinazolin-2-yl)-6,7-dihydro-1H-imidazo[4,5-c]pyridin-5(4H)-yl)methanone] | 500 to 1000
Cc1nn(C)cc1-c1nnc(C(=O)N2CCc3[nH]cnc3[C@@H]2c2ncc3ccccc3n2)o1 [Example 199, (R)-(5-(1,3-dimethyl-1H-pyrazol-4-yl)-1,3,4-oxadiazol-2-yl)(4-(quinazolin-2-yl)-6,7-dihydro-1H-imidazo[4,5-c]pyridin-5(4H)-yl)methanone] | > 5000
Cc1nn(C)cc1-c1nnc(C(=O)N2CCc3[nH]cnc3[C@H]2c2ncc3ccccc3n2)o1 [Example 200, (S)-(5-(1,3-dimethyl-1H-pyrazol-4-yl)-1,3,4-oxadiazol-2-yl)(4-(quinazolin-2-yl)-6,7-dihydro-1H-imidazo[4,5-c]pyridin-5(4H)-yl)methanone] | < 500
CC(C)(C)c1nnc(C(=O)N2CCc3[nH]cnc3[C@H]2c2ncc3ccccc3n2)o1 [Example 201, (S)-(5-(tert-butyl)-1,3,4-oxadiazol-2-yl)(4-(quinazolin-2-yl)-6,7-dihydro-1H-imidazo[4,5-c]pyridin-5(4H)-yl)methanone] | < 500
CC(C)(C)c1nnc(C(=O)N2CCc3[nH]cnc3[C@@H]2c2ncc3ccccc3n2)o1 [Example 202, (R)-(5-(tert-butyl)-1,3,4-oxadiazol-2-yl)(4-(quinazolin-2-yl)-6,7-dihydro-1H-imidazo[4,5-c]pyridin-5(4H)-yl)methanone] | > 5000
Cn1nccc1-c1nnc(C(=O)N2CCc3[nH]cnc3[C@H]2c2ncc3ccccc3n2)o1 [Example 203, (S)-(5-(1-methyl-1H-pyrazol-5-yl)-1,3,4-oxadiazol-2-yl)(4-(quinazolin-2-yl)-6,7-dihydro-1H-imidazo[4,5-c]pyridin-5(4H)-yl)methanone] | < 500
Cn1nccc1-c1nnc(C(=O)N2CCc3[nH]cnc3[C@@H]2c2ncc3ccccc3n2)o1 [Example 204, (R)-(5-(1-methyl-1H-pyrazol-5-yl)-1,3,4-oxadiazol-2-yl)(4-(quinazolin-2-yl)-6,7-dihydro-1H-imidazo[4,5-c]pyridin-5(4H)-yl)methanone] | 1000 to 5000
O=C(c1cnc(-c2ccccn2)s1)N1CCc2[nH]cnc2[C@H]1c1cc2ccccc2nn1 [Example 205, (S)-(4-(cinnolin-3-yl)-6,7-dihydro-1H-imidazo[4,5-c]pyridin-5(4H)-yl)(2-(pyridin-2-yl)thiazol-5-yl)methanone] | 500 to 1000
O=C(c1cnc(-c2ccccn2)s1)N1CCc2[nH]cnc2[C@@H]1c1cc2ccccc2nn1 [Example 206, (R)-(4-(cinnolin-3-yl)-6,7-dihydro-1H-imidazo[4,5-c]pyridin-5(4H)-yl)(2-(pyridin-2-yl)thiazol-5-yl)methanone] | 1000 to 5000
Cc1nc(-c2ccccn2)oc1C(=O)N1CCc2[nH]cnc2[C@@H]1c1cc2ccccc2nn1 [Example 207] | > 5000
Cc1nc(-c2ccccn2)oc1C(=O)N1CCc2[nH]cnc2[C@H]1c1cc2ccccc2nn1 [Example 208, (S)-(4-(cinnolin-3-yl)-6,7-dihydro-1H-imidazo[4,5-c]pyridin-5(4H)-yl)(4-methyl-2-(pyridin-2-yl)oxazol-5-yl)methanone] | 500 to 1000
CC(C)(O)c1nc(C(F)F)c(C(=O)N2CCc3[nH]cnc3[C@H]2c2cc3ccccc3nn2)o1 [Example 209, (S)-(4-(cinnolin-3-yl)-6,7-dihydro-1H-imidazo[4,5-c]pyridin-5(4H)-yl)(4-(difluoromethyl)-2-(2-hydroxypropan-2-yl)oxazol-5-yl)methanone] | < 500
CC(C)(O)c1nc(C(F)F)c(C(=O)N2CCc3[nH]cnc3[C@@H]2c2cc3ccccc3nn2)o1 [Example 210, (R)-(4-(cinnolin-3-yl)-6,7-dihydro-1H-imidazo[4,5-c]pyridin-5(4H)-yl)(4-(difluoromethyl)-2-(2-hydroxypropan-2-yl)oxazol-5-yl)methanone] | 1000 to 5000
Cc1ncoc1C(=O)N1CCc2[nH]cnc2[C@H]1c1cc2ccccc2nn1 [Example 211, (S)-(4-(cinnolin-3-yl)-6,7-dihydro-1H-imidazo[4,5-c]pyridin-5(4H)-yl)(4-methyloxazol-5-yl)methanone] | < 500
O=C(c1ccnn1C(F)F)N1CCc2[nH]cnc2[C@H]1c1cc2ccccc2nn1 [Example 213, (S)-(4-(cinnolin-3-yl)-6,7-dihydro-1H-imidazo[4,5-c]pyridin-5(4H)-yl)(1-(difluoromethyl)-1H-pyrazol-5-yl)methanone] | < 500
O=C(c1ccnn1C(F)F)N1CCc2[nH]cnc2[C@@H]1c1cc2ccccc2nn1 [Example 214, (R)-(4-(cinnolin-3-yl)-6,7-dihydro-1H-imidazo[4,5-c]pyridin-5(4H)-yl)(1-(difluoromethyl)-1H-pyrazol-5-yl)methanone] | 1000 to 5000
O=C(C1CC1)N1CCc2[nH]cnc2[C@H]1c1cc2ccccc2nn1 [Example 215, (S)-(4-(cinnolin-3-yl)-6,7-dihydro-1H-imidazo[4,5-c]pyridin-5(4H)-yl)(cyclopropyl)methanone] | 1000 to 5000
